Molecules are shown by their SMILES. Changes are numbered by the printed parent chain.

The target of assay [1] is T1, NTCP M290T/I291V (NTCP→mAsbt) (Homo sapiens, UniProt Q14973, I291V/M290T).
T1 construct: stably transfected with the full open reading frames of human NTCP, ASBT, SOAT, OATP1B1, OATP1B3, OATP2B1, and murine Asbt (mAsbt); expressed in transfected cells; host or cells: HEK293, stably transfected
T1 sequence (Q14973 1-349 M290T/I291V): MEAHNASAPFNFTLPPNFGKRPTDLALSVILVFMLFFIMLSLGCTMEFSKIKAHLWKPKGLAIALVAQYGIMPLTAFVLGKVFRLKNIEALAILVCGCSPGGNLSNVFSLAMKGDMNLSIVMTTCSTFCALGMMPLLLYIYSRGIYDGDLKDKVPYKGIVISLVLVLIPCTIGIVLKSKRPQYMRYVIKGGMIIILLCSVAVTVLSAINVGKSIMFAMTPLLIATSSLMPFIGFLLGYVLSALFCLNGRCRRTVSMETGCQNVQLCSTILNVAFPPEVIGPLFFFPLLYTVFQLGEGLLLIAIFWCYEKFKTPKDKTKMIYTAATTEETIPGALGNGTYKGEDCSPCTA
Put plainly: [3H]TC transport and inhibition assay, NTCP→mAsbt mutant in HEK293 cells. The class given is cell-based. Conditions: 1 μM [3H]TC, 10 min. The protocol:
(§1) Amplification was performed on a peqSTAR XS PEQLAB PCR cycler (Peqlab) with Pfu DNA polymerase (M774A; Promega) in 18 cycles under the following conditions: initial denaturation for 2 min at 95°C, denaturation for 30 s at 95°C, annealing for 1 min at 55°C, extension for 8 min and 30 s at 72°C, final elongation for 10 min at 72°C and final hold at 4°C. After amplification, the products were digested with DpnI (ER1701; Thermo Fisher Scientific) for 1 h at 37°C and transformed into TOP10 chemically competent E. coli (Thermo Fisher Scientific). Plasmids were isolated using a GeneJET Plasmid Miniprep Kit (Thermo Fisher Scientific) according to the manufacturer's protocol, and the generated point mutations were verified by DNA sequencing (Seqlab Microsynth).
(§2) Cells were seeded onto poly-L-lysine-coated 96-well plates, induced with 1 μg/ml tetracycline, and grown to confluence over 72 h at 37°C. Then, cells were washed with tempered (37°C) phosphate-buffered saline (PBS, containing 137.0 mM NaCl, 2.7 mM KCl, 1.5 mM KH2PO4, and 7.3 mM Na2HPO4, at pH 7.4) and preincubated with 80 μl sodium transport buffer (STB, containing 142.9 mM NaCl, 4.7 mM KCl, 1.2 mM MgSO4, 1.2 mM KH2PO4, 1.8 mM CaCl2, and 20.0 mM HEPES, at pH 7.4) for 5 min at 37°C. For inhibition studies, the medium was replaced by 80 μl STB containing the respective inhibitor or solvent alone and cells were further incubated for 5 min at 37°C. Transport experiments were started by adding 20 μl of a 5-fold concentrated substrate solution (solved in STB). For transport experiments under sodium-free conditions the same buffer composition was used as for STB, but sodium chloride was substituted with equimolar concentrations of choline chloride as previously reported ([20], [24]). Transport experiments were stopped by washing twice with ice-cold PBS and the plates were kept cool on ice until adding the lysis buffer [1% sodium dodecyl sulfate (SDS) and 1 N NaOH]. Then, the cell-associated radioactivity of the respective tritium-labeled substrate or ligand was quantified by liquid scintillation counting using MicroScint-20 scintillation cocktail (Revvity) in a Packard Microplate Scintillation Counter TopCount NXT (Packard Instrument Company). For IC50 transport inhibition measurements, the mean uptake values measured in non-carrier-expressing HEK293 control cells were defined as 0% uptake control and were subtracted from all other values. Values from cells without inhibitor and solvent alone were set to 100%. Finally, all net transport data were expressed as uptake or binding as % of control. All transport or inhibition graphs were generated with GraphPad Prism 6 (GraphPad). Determination of half maximal inhibitory concentrations (IC50) was done by nonlinear regression analysis using the equation log (inhibitor) versus response—variable slope settings. All data points of the IC50 curves represent means ± SD of quadruplicate determinations. For Km measurements, BS uptake in the absence of sodium was regarded as carrier-independent unspecific uptake and was subtracted from the transport rates in the presence of sodium to obtain carrier-specific uptake rates (indicated as dashed lines). From the specific uptake rates, Michaelis Menten Km values were calculated by non-linear regression analysis.

In assay [2] the target is T2, NTCP M290S (NTCP→ASBT) (Homo sapiens, UniProt Q14973, M290S).
T2 construct: stably transfected with the full open reading frames of human NTCP, ASBT, SOAT, OATP1B1, OATP1B3, OATP2B1, and murine Asbt (mAsbt); expressed in transfected cells; host or cells: HEK293, stably transfected
T2 sequence (Q14973 1-349 M290S): T1 sequence (Q14973 1-349 M290T/I291V) with T290S, V291I
As to the kind of experiment: [3H]TC transport and inhibition assay, NTCP→ASBT mutant in HEK293 cells. The class given is cell-based. As to conditions: 1 μM [3H]TC, 10 min. Here is the method:
as §1, §2

For `CCCCC1(CCCC)CS(=O)(=O)c2ccc(N(C)C)cc2[C@@H](c2ccc(OCCCC[N+]34CCN(CC3)CC4)cc2)[C@H]1O` [SC-435], the “Inhibition curves and AUC of NTCP→mAsbt mutant compared to wild-type NTCP” value in assay [1] is “still inactive”. For the same molecule, the “Inhibition curves and AUC of NTCP→ASBT mutant compared to wild-type NTCP” value in assay [2] was “still inactive”.
Turning to `CCCCC1(CCCC)CN(c2ccccc2)c2cc(SC)c(OCC(=O)N[C@@H](C(=O)NCC(=O)O)c3ccccc3)cc2S(=O)(=O)C1` [elobixibat], in assay [1], the “Inhibition curves and AUC of NTCP→mAsbt mutant compared to wild-type NTCP” value is recorded as “did not significantly change”. In assay [2], the “Inhibition curves and AUC of NTCP→ASBT mutant compared to wild-type NTCP” value is given as “did not significantly change”.
`CCCC[C@]1(CC)CS(=O)(=O)c2cc(CNC(CC(=O)O)CC(=O)O)c(OC)cc2[C@@H](c2ccccc2)N1` [linerixibat]: in assay [1], the “Inhibition curves and AUC of NTCP→mAsbt mutant compared to wild-type NTCP” value is “still inactive”. The “Inhibition curves and AUC of NTCP→ASBT mutant compared to wild-type NTCP” value in assay [2] was “still inactive”.
Consider `CCCCC1(CCCC)CS(=O)(=O)c2ccc(N(C)C)cc2[C@@H](c2ccc(OCc3ccc(C[N+]45CCN(CC4)CC5)cc3)cc2)[C@H]1O` [maralixibat], for which, in assay [1], the “Inhibition curves and AUC of NTCP→mAsbt mutant compared to wild-type NTCP” value is “did not significantly change”. In addition, in assay [2], the “Inhibition curves and AUC of NTCP→ASBT mutant compared to wild-type NTCP” value is listed as “did not significantly change”.
As to `CCCCC1(CCCC)CN(c2ccccc2)c2cc(SC)c(OCC(=O)N[C@@H](C(=O)N[C@@H](CC)C(=O)O)c3ccc(O)cc3)cc2S(=O)(=O)N1` [odevixibat], the “Inhibition curves and AUC of NTCP→mAsbt mutant compared to wild-type NTCP” value in assay [1] is recorded as “did not significantly change”. Besides, the “Inhibition curves and AUC of NTCP→ASBT mutant compared to wild-type NTCP” value in assay [2] was “did not significantly change”.

Source of the values: PMC12596218 (Journal of Lipid Research, 2025).
